Experimental data taken from patent publication US20230372313A1, “METHODS FOR REDUCING GLYCOSPHINGOLIPID CONCENTRATION IN BRAIN TISSUE AND METHODS OF TREATMENT OF NEURODEGENERATIVE DISEASES INVOLVING THE SAME” (GENZYME CORPORATION, priority 2020, published 2023).

Tested on: glucosylceramide (GL-1)
Assay: CSF glucosylceramide (GL-1) levels, pharmacodynamics
Type: in vivo, human
Text: Analyses were based on all available data from participants who enrolled in part 1 of the trial and were randomised to receive either Compound 2 or placebo for up to 52 weeks for Japanese participants and 36 weeks for the ROW population. As part 1 was an exploratory, dose-escalation study, the sample size was not based on a statistical power calculation. Participants included in the primary safety analyses were those who were randomized and received at least one dose of Compound 2 or placebo. A data monitoring committee was responsible for overseeing the safety of patients and the risk/benefit ratio throughout the study. Duration of exposure to Compound 2 was different among the doses, as per the sequential cohort design, with the low- and high-dose cohorts commencing the study first and last, respectively. For pharmacokinetics, plasma parameters were calculated using noncompartmental methods, from plasma Compound 2 concentrations obtained after single dose administration. AUC0-24 and AUC0-48 were calculated using the trapezoidal method over a predefined time period of 24 hours or 48 hours, respectively. CLss/F was calculated using the following equation: CLss/F=Dose/AUCτ, where τ is the dosing interval. For pharmacodynamics, percent reduction of plasma or CSF GL-1 from baseline was calculated as (value−baseline)/baseline×100. Formal statistical testing was not conducted on MDS-UPDRS scale assessments.
In exploratory analyses, Compound 2 pharmacodynamics in plasma and CSF were assessed by mean percent change in GL-1 levels from baseline through Week 4. GL-1 levels were assessed in plasma and CSF samples collected at the day of randomisation and Week 4, with plasma GL-1 levels also assessed at Week 2.
Concentrations of GL-1 in plasma and CSF were determined using a liquid chromatography tandem mass spectrometry method. Secondary pharmacokinetic outcomes were evaluated over a 4-week period of once-daily Compound 2 dosing (Table 7).

[1] = Japan, High 15 mg once daily oral, n = 3
[2] = Japan, Low 4 mg once daily oral, n = 3
[3] = Japan, Mid 8 mg once daily oral, n = 3
[4] = ROW, High 15 mg once daily oral, n = 4, CSF sample not collected for 1 participant
[5] = ROW, Low 4 mg once daily oral, n = 4
[6] = ROW, Mid 8 mg once daily oral, n = 5

SMILES: CC(C)(NC(=O)O[C@@H]1CN2CCC1CC2)c1csc(-c2ccc(F)cc2)n1 [Compound 2, (S)-quinuclidin-3-yl (2-(2-(4-fluorophenyl)thiazol-4-yl)propan-2-yl)carbamate]
- CSF GL-1, Week 4 (mean) [1]: 2.770 ng/mL
- CSF GL-1, Week 4, Change from baseline (%) (mean) [1]: −72.0%
- CSF GL-1, Week 4, Change from baseline (mean) [1]: -6.663 ng/mL
- CSF GL-1, Week 4 (mean) [2]: 3.843 ng/mL
- CSF GL-1, Week 4, Change from baseline (%) (mean) [2]: −21.7%
- CSF GL-1, Week 4, Change from baseline (mean) [2]: -1.733 ng/mL
- CSF GL-1, Week 4 (mean) [3]: 3.027 ng/mL
- CSF GL-1, Week 4, Change from baseline (%) (mean) [3]: −67.0%
- CSF GL-1, Week 4, Change from baseline (mean) [3]: -5.023 ng/mL
- mean reduction in CSF GL-1 at Week 4 (Japanese cohort, high-dose 15 mg): 72.0%
- mean reduction in CSF GL-1 at Week 4 (Japanese cohort, low-dose 4 mg): 21.7%
- mean reduction in CSF GL-1 at Week 4 (Japanese cohort, medium-dose 8 mg): 67.0%
- mean reduction in CSF GL-1 at Week 4 (ROW participants, high-dose 15 mg): 74.3%
- mean reduction in CSF GL-1 at Week 4 (ROW participants, low-dose 4 mg): 41.0%
- mean reduction in CSF GL-1 at Week 4 (ROW participants, medium-dose 8 mg): 58.0%
- CSF GL-1, Week 4 (mean) [4]: 1.623 ng/mL
- CSF GL-1, Week 4, Change from baseline (%) (mean) [4]: −74.3%
- CSF GL-1, Week 4, Change from baseline (mean) [4]: -5.250 ng/mL
- CSF GL-1, Week 4 (mean) [5]: 4.315 ng/mL
- CSF GL-1, Week 4, Change from baseline (%) (mean) [5]: −41.0%
- CSF GL-1, Week 4, Change from baseline (mean) [5]: -2.433 ng/mL
- CSF GL-1, Week 4 (mean) [6]: 4.406 ng/mL
- CSF GL-1, Week 4, Change from baseline (%) (mean) [6]: −58.0%
- CSF GL-1, Week 4, Change from baseline (mean) [6]: -6.376 ng/mL
- decrease in CSF GL-1 levels from baseline (highest dose (15 mg), Japanese and ROW cohorts): 72.0%-74.3%
- brain penetration (oral administration, indicated by CSF GL-1 decrease): brain-penetrant on oral administration
- decrease of CSF GL-1 levels from baseline versus dose (over 4 weeks): dose-dependent manner
